Source: ChEMBL document CHEMBL1157247, “Bioactive natural and semisynthetic latrunculins” (2006)
In brackets after ≈: the same amount, converted by molar mass. Activity calls are given as the source filed them. The rule behind the calls is not given here.

What was measured:
Saccharomyces cerevisiae = assay: Antifungal activity against Saccharomyces cerevisiae by modified microtiter plate assay; type: functional
Candida albicans = assay: Antifungal activity against Candida albicans ATCC 10231 by modified microtiter plate assay; type: functional
Staphylococcus aureus = assay: Antibacterial activity against Staphylococcus aureus ATCC 6535 by modified microtiter plate assay; type: functional
Bacillus cereus = assay: Antibacterial activity against Bacillus cereus by modified microtiter plate assay; type: functional
Mus musculus [1] = species on record: Mus musculus; assay: Antiproliferative activity against mouse B16B15b cells at 1 uM after 18 hrs by alamar blue assay relative to control; type: functional, cell-based
Gallus gallus [2] = species on record: Gallus gallus; assay: Antiangiogenic activity in fertilized white leghorn chicken eggs at 57 uM/disk by CAM assay; type: functional; conditions: Egg
Mus musculus [3] = species on record: Mus musculus; assay: Inhibition of mouse B16B15b cell migration at 1 uM by Boyden's camber assay; type: functional
Gallus gallus [4] = species on record: Gallus gallus; assay: Antiangiogenic activity in fertilized white leghorn chicken eggs at 12 uM/disk by CAM assay; type: functional; conditions: Egg
Mus musculus [5] = species on record: Mus musculus; assay: Inhibition of mouse B16B15b cell migration assessed as wound closure rate at 1 uM after 14 hrs by wound healing assay relative to control; type: functional

Row | Structure (SMILES) | MIC (Saccharomyces cerevisiae) [µM] | MIC (Candida albicans) [µM] | Activity (Mus musculus [1]) | further results
1 | C/C1=C/C(=O)O[C@@H]2CC(CC[C@H](C)/C=C\C=C\CC1)O[C@@](O)([C@H]1CSC(=O)N1)C2 | 2.5 (≈ 1.05 µg/mL) | 2.5 (≈ 1.05 µg/mL) | – | –
2 | CC(=O)N1C(=O)SC[C@H]1C(=O)/C=C/C[C@H]1CC[C@H](C)/C=C\CC/C(C)=C\C(=O)O1 | 2.5 (≈ 1.05 µg/mL) | 2.5 (≈ 1.05 µg/mL) | Active | MIC (Staphylococcus aureus): 17.8 µM (≈ 7.47 µg/mL); MIC (Bacillus cereus): 17.8 µM (≈ 7.47 µg/mL)
3 | COc1cc(/C=C/C(=O)CC(=O)/C=C/c2ccc(O)c(OC)c2)ccc1O | – | – | – | Activity (Gallus gallus [2]): Active
4 | CO[C@]1([C@@H]2CSC(=O)N2)C[C@H]2C[C@@H](CC[C@H](C)/C=C\CC/C(C)=C\C(=O)O2)O1 [15-METHOXYLATRUNCULIN B] | 2.5 (≈ 1.02 µg/mL) | 2.5 (≈ 1.02 µg/mL) | – | Activity (Mus musculus [3]): Active; Activity (Gallus gallus [4]): Active
5 | CCCCO[C@]1([C@@H]2CSC(=O)N2)C[C@H]2C[C@@H](CC[C@H](C)/C=C\CC/C(C)=C\C(=O)O2)O1 [15-O-BUTYLLATRUNCULIN B] | 2.5 (≈ 1.13 µg/mL) | 2.5 (≈ 1.13 µg/mL) | Active | –
6 | CCCCCCCCO[C@]1([C@@H]2CSC(=O)N2)C[C@H]2C[C@@H](CC[C@H](C)/C=C\CC/C(C)=C\C(=O)O2)O1 [15-O-OCTYLLATRUNCULIN B] | 2.5 (≈ 1.27 µg/mL) | 2.5 (≈ 1.27 µg/mL) | Active | MIC (Staphylococcus aureus): 14.7 µM (≈ 7.46 µg/mL); MIC (Bacillus cereus): 14.7 µM (≈ 7.46 µg/mL)
7 | Clc1ccccc1C(c1ccccc1)(c1ccccc1)n1ccnc1 [CLOTRIMAZOLE] | 21.7 (≈ 7.48 µg/mL) | 21.7 (≈ 7.48 µg/mL) | – | –
8 | C/C1=C/C(=O)O[C@@H]2C[C@@H](CC[C@H](C)/C=C\CC1)O[C@@](O)([C@@H]1CSC(=O)N1)C2 [LATRUNCULIN B] | 2.5 (≈ 0.989 µg/mL) | 2.5 (≈ 0.989 µg/mL) | Active | Activity (Mus musculus [5]): Active
9 | CC(=O)N1C(=O)SC[C@H]1[C@@]1(O)C[C@H]2C[C@@H](CC[C@H](C)/C=C\CC/C(C)=C\C(=O)O2)O1 [N-ACETYLLATRUNCULIN B] | 2.5 (≈ 1.09 µg/mL) | 2.5 (≈ 1.09 µg/mL) | – | Activity (Mus musculus [5]): Active
10 | C/C1=C/C(=O)O[C@@H]2C[C@@H](CC[C@H](C)/C=C\CC1)O[C@@](O)([C@@H]1CSC(=O)N1CO)C2 [N-HYDROXYMETHYLLATRUNCULIN B] | 2.5 (≈ 1.06 µg/mL) | 2.5 (≈ 1.06 µg/mL) | – | Activity (Mus musculus [3]): Active
11 | CC1(C)S[C@@H]2[C@H](NC(=O)Cc3ccccc3)C(=O)N2[C@H]1C(=O)O [PENICILLIN G] | – | – | – | MIC (Staphylococcus aureus): 22.4 µM (≈ 7.49 µg/mL); MIC (Bacillus cereus): 22.4 µM (≈ 7.49 µg/mL)
